Measured values reported in paper PMC6921279 (Frontiers in Endocrinology, 2019).
Values belong to the molecule of their own block, whether it stands above or below them.

Tests used:
[1] = system: MEK1/2-mediated phosphorylation of ERK1/2; parameters: method as in PMID 16484629, PMID 10098484, PMID 14670995, PMID 11117536, PMID 12970163; conditions: CRF1R and CRF2R signaling, various cell lines; cited from earlier work
[2] = system: CRF1R-mediated ERK1/2 phosphorylation; assay: Modulation of CRF-stimulated ERK1/2 phosphorylation in COS-7 cells expressing HA-CRF1R; assay type: cell-based; conditions: 100 nM CRF, 5 min
Method: (§1) Plasmid pRK5 encoding the carboxyl terminus of βARK that contains its βγ-binding domain (ct-βARK) was kindly provided by Dr. W. Koch (Center for Translational Medicine, Temple University, Philadelphia, PA), which is a scavenger for G protein βγ subunits ([25]). […] Plasmid pUSEamp encoding dominant-negative Akt-K179M (dn-Akt) was from Upstate Biotechnology (Lake Placid, NY).
(§2) COS-7 cells (from the American Type Culture Collection) were cultured at 37°C in a humidified atmosphere of 95% air, 5% CO2, in DMEM supplemented with 10% FBS, 100 μg/ml streptomycin, and 100 units/ml penicillin (COS-7 growth medium). Transient transfections were performed using LipofectAMINE (Life Technologies: Gaithersburg, MD) as described previously ([27]). Cells were seeded at 8 × 10^5 cells/10-cm dish in COS-7 medium and cultured for 3 days before transfection. COS-7 cells were transfected in 5 ml/dish OptiMEM containing 10 μg/ml LipofectAMINE with empty vector, pcDNA3 encoding the HA-CRF1R or the HA-CRF1R-Δ386 mutant. […] After replacing the transfection medium with fresh growth medium, transfected COS-7 cells were cultured for 1 day. Subsequently, cells were re-seeded in 6-well plates and cultured for an additional day prior to the experiment.
(§3) The protocols for measuring total and phosphorylated ERK1/2, c-Src, PYK2, Akt, and EGFR have been previously published ([28], [29]). After cells were cultured to 60–70% confluence, they were serum-deprived for 24 h. On the day of the experiment, cells were treated with the indicated ligands and inhibitors. […] After treatment, cells were placed on ice, the media was aspirated, and the cells were washed twice with ice-cold PBS and lysed in 100 μl of Laemmli sample buffer 1X. The lysates were briefly sonicated, heated at 95°C for 5 min, and centrifuged for 5 min at 14,000 rpm. Resulting supernatants were loaded in separate lanes of a 10% SDS-PAGE gels and electrophoresed. Next, Western transfer on to PDVF membranes was completed. The Western blots were then probed with specific antibodies targeting phosphorylated and non-phosphorylated forms of ERK1/2, c-Src, PYK2, Akt, and EGFR for primary immunodetection. After blots were probed with horseradish peroxidase-conjugated secondary antibody, protein bands were visualized with enhanced chemiluminescence ECL reagent (Amersham Pharmacia Biotech, Piscataway, NJ or Pierce Biotechnology, Rockford, IL) and scanned using the GS-800 Calibrated Imaging Densitometer (Bio-Rad). The labeled bands were quantified using the Quantity One 4.6.3 software program (Bio-Rad).
Total cell lysates were separated by SDS-PAGE and analyzed by immunoblotting with anti-p-ERK1/2 Thr^202/Tyr^204, as described in Materials and Methods. ERK1/2 phosphorylation was quantitated by densitometry, and mean values were plotted from five independent experiments.
Total cell lysates were separated by SDS-PAGE and analyzed by immunoblotting with anti-p-ERK1/2 Thr^202/Tyr^204 (A–D) or anti-p-EGFR Tyr^1068 (E), as described in Materials and Methods. ERK1/2 and EGFR phosphorylation were quantitated by densitometry, and mean values were plotted from three to five independent experiments.
Total cell lysates were separated by SDS-PAGE and analyzed by immunoblotting with anti-p-ERK1/2 Thr^202/Tyr^204, as described in Materials and Methods. ERK1/2 phosphorylation was quantitated by densitometry, and mean values were plotted from three to five independent experiments.

[3] = system: Src; assay: CRF-induced Src phosphorylation at Tyr416 in COS-7 cells expressing HA-CRF1R; assay type: cell-based; conditions: 10 μM PP2, 30 min pretreatment; 100 nM CRF, 5 min
Method: as §2, with “Subsequently, cells were re-seeded in 6-well plates and cultured for an additional day prior to the experiment.” left out
(§4) The protocols for measuring total and phosphorylated ERK1/2, c-Src, PYK2, Akt, and EGFR have been previously published ([28], [29]). […] The labeled bands were quantified using the Quantity One 4.6.3 software program (Bio-Rad).
Figure 5 Role of Src tyrosine kinase in CRF-stimulated ERK1/2 phosphorylation. […] Total cell lysates were separated by SDS-PAGE and analyzed by immunoblotting with anti-p-Src Tyr^416 (A,B) or anti-p-ERK1/2 Thr^202/Tyr^204 (C–E), as described in Materials and Methods. Src, PYK2, and ERK1/2 phosphorylation were quantitated by densitometry, and mean values were plotted from three to five independent experiments. […]

[4] = system: EGFR Tyr845; assay: CRF-induced EGFR phosphorylation at Tyr845 in COS-7 cells expressing HA-CRF1R; assay type: cell-based; conditions: 10 μM PP2, 30 min pretreatment; 100 nM CRF, 5 min
Method: (§5) COS-7 cells (from the American Type Culture Collection) were cultured at 37°C in a humidified atmosphere of 95% air, 5% CO2, in DMEM supplemented with 10% FBS, 100 μg/ml streptomycin, and 100 units/ml penicillin (COS-7 growth medium). Transient transfections were performed using LipofectAMINE (Life Technologies: Gaithersburg, MD) as described previously ([27]). Cells were seeded at 8 × 10^5 cells/10-cm dish in COS-7 medium and cultured for 3 days before transfection. COS-7 cells were transfected in 5 ml/dish OptiMEM containing 10 μg/ml LipofectAMINE with empty vector, pcDNA3 encoding the HA-CRF1R or the HA-CRF1R-Δ386 mutant. […]
as §4
(§6) Figure 6 CRF mediates EGFR phosphorylation at Tyr^845 and activation of PYK2. […] Total cell lysates were separated by SDS-PAGE and analyzed by immunoblotting with anti-p-EGFR Tyr^845 (A,B) or anti-p-PYK2 Tyr^402 (E), as described in Materials and Methods. EGFR and ERK1/2 phosphorylation were quantitated by densitometry, and mean values were plotted from three to five independent experiments. […] Src and EGFR were quantitated by densitometry, and mean values were plotted from three independent experiments. […]

[5] = system: PYK2; assay: CRF-induced PYK2 phosphorylation at Tyr402 in COS-7 cells expressing HA-CRF1R; assay type: cell-based; conditions: PP2 (discussion)
Method: as §5, §4, §6

[6] = system: CRF1R-mediated Akt phosphorylation; assay: CRF-induced Akt phosphorylation at Ser473 in COS-7 cells expressing HA-CRF1R; assay type: cell-based, human; conditions: PP2 10 μM, 30 min pretreatment; 100 nM CRF, 5 min
Method: as §1, §2
as §3, with “After blots were probed with horseradish peroxidase-conjugated secondary antibody, protein bands were visualized with enhanced chemiluminescence ECL reagent (Amersham Pharmacia Biotech, Piscataway, NJ or Pierce Biotechnology, Rockford, IL) and scanned using the GS-800 Calibrated Imaging Densitometer (Bio-Rad).” left out
Figure 7 CRF mediates Akt activation. […] Total cell lysates were separated by SDS-PAGE and analyzed by immunoblotting with anti-p-Akt Ser^473, as described in Materials and Methods. Akt phosphorylation was quantitated by densitometry, and mean values were plotted from three to five independent experiments. […]

[7] = system: β2-adrenergic receptor; parameters: method as in PMID 15489914, PMID 11278940; conditions: A431 cells; cited from earlier work
Text: Moreover, there is evidence that Tyr phosphorylation of GPCRs plays a role in mediating GPCR-Src interactions ([43]). […] This residue lies within a canonical Src SH2 binding domain, and it is proposed that Src directly binds the Tyr-phosphorylated β2-AR.

[8] = system: rat cardiomyocytes; parameters: method as in PMID 12970163; conditions: CRF2R activation by Ucn2 and Ucn3; cited from earlier work

SMILES: COc1cccc(-c2cc(=O)c3ccccc3o2)c1N [PD98059]
effect on ERK1/2 activation [1]: inhibiting ERK1/2 activation

IC50 ([2]; PP2 0–20 μM, 30 min pretreatment, read-out: IC50, inhibition of CRF-stimulated ERK1/2 phosphorylation): 2 µM
SMILES: CC(C)(C)n1nc(-c2ccc(Cl)cc2)c2c(N)ncnc21 [PP2]
effect on CRF-stimulated ERK1/2 phosphorylation ([2]; 10 μM PP2, 30 min pretreatment): abolished CRF-stimulated ERK1/2 phosphorylation | effect on CRF-induced Src phosphorylation [3]: CRF-induced Src phosphorylation was prevented | effect on CRF-induced EGFR Tyr845 phosphorylation [4]: blocked | effect on CRF-stimulated activation of Src, PYK2, the EGFR, and ERK1/2 [5]: markedly reduced or abolished the CRF-stimulated activation of Src, PYK2, the EGFR, and ERK1/2 | effect on CRF-induced Akt activation [6]: completely inhibited

SMILES: CC(C)NCC(O)c1ccc(O)c(O)c1 (stereo not drawn) [isoproterenol]
phosphorylation of β2-AR [7]: results in phosphorylation of the receptor on Tyr^305

SMILES: CCCC[C@@H](C)/C=C(C)/C=C(\C)C(=O)NC1=C[C@@](O)(/C=C/C=C/C=C/C(=O)NC2=C(O)CCC2=O)[C@@H]2O[C@@H]2C1=O [manumycin A]
effect on ERK1/2 phosphorylation [8]: abolish ERK1/2 phosphorylation
